Results as given in patent US8952222B2, “Herbicide resistant sunflower plants derived from RW-B cultivar” (Anglo Netherlands Grain B.V., priority 2008, dated 2015).
Several values for one entry are separate records, joined by “and”; a condition that tells them apart may be missing. Equal values may be shown once. Marks after values point to notes of the source that are not given here.

What was measured:
Experiment in all cases: Whole plant dose response to metsulfuron
Type in all cases: in vivo
sunflower line B770imi = conditions: line B770IMI (A205V), 14 DAT; for Dry weight (as a % of the untreated plants): above ground biomass; for Phytotoxicity Index: scale 0-9
Procedure: (§1) Seeds were sown in Petri dishes and, after germination, plantlets were transplanted to pots of 10 cm of diameter in a potting media consisting of equal parts of vermiculite, soil and sand. Plants were grown in a greenhouse under natural light conditions supplemented with 400 W sodium halide lamps to provide a 16 hr daylight. Day/night temperatures were 25 and 20° C., respectively. […] Experiment was arranged as a randomized block design with a full factorial (sunflower line x treatment) arrangement of treatments and 10 replications.
(§2) On the day of herbicide application ten plants of each genotype were cut at the cotyledonal node and dried at 60° C. for 48 hrs for zero-time dried weight determination.
(§3) […] Above ground biomass data from each line were converted to biomass accumulation after application by subtracting the appropriate average zero-time biomass from each sample. Dry biomass data were converted to percentages of the untreated control plants within each line to allow direct comparisons between groups. […] Plants without any symptoms were recorded as “0”, increasing levels of stunting and chlorosis with respect to the untreated control plants were recorded as “1” to “4”, increasing levels of leaf abnormalities and leaf necrosis were recorded from “5” to “8”, and dead plants with total necrosis of the apex were recorded as “9”.

sunflower line SuBL = conditions: line SuBL (P197L), 14 DAT; for Dry weight (as a % of the untreated plants): above ground biomass; for Phytotoxicity Index: scale 0-9
Procedure: as §1, §2, §3

sunflower line RW-B = conditions: line RW-B (W574L), 14 DAT; for Dry weight (as a % of the untreated plants): above ground biomass; for Phytotoxicity Index: scale 0-9
Procedure: as §1, §2, §3

sunflower line B770 = conditions: 14 DAT; for Dry weight (as a % of the untreated plants): above ground biomass, line Suscp; for Phytotoxicity Index: line B770 (WT-Susceptible), scale 0-9

Which “Dry weight (as a % of the untreated plants)” value (sunflower line B770imi; metsulfuron 0.5x = 2.5 g ai/ha) does the source give for `COc1nc(C)nc(NC(=O)NS(=O)(=O)c2ccccc2C(=O)O)n1` [metsulfuron] here?
Its value is 42^c %.

And the “Dry weight (as a % of the untreated plants)” value (sunflower line B770imi; metsulfuron 1x = 5 g ai/ha)?
The value was 30.1^c %.

What about the “Dry weight (as a % of the untreated plants)” value (sunflower line B770imi; metsulfuron 2x = 10 g ai/ha) of the same compound?
The value was 30.4^c %.

And the “Dry weight (as a % of the untreated plants)” value (sunflower line B770imi; metsulfuron 3x = 15 g ai/ha)?
Its value is 30^c %.

What about the “Dry weight (as a % of the untreated plants)” value (sunflower line B770imi; metsulfuron 4x = 20 g ai/ha) of the same compound?
The value was 30.2^b %.

What about the “Phytotoxicity Index” value (sunflower line B770imi; metsulfuron 0.5x = 2.5 g ai/ha) of the same compound?
The value was 3.3^b.

What about the “Phytotoxicity Index” value (sunflower line B770imi; metsulfuron 1x = 5 g ai/ha) of the same compound?
The value was 5.2^b.

And the “Phytotoxicity Index” value (sunflower line B770imi; metsulfuron 3x = 15 g ai/ha)?
The value was 9^a.

What about the “Phytotoxicity Index” value (sunflower line B770imi; metsulfuron 4x = 20 g ai/ha) of the same compound?
The value was 9^a.

What about the “Dry weight (as a % of the untreated plants)” value (sunflower line SuBL; metsulfuron 0.5x = 2.5 g ai/ha) of the same compound?
Its value is 83.3% and 83.3^b %.

What about the “Dry weight (as a % of the untreated plants)” value (sunflower line SuBL; metsulfuron 1x = 5 g ai/ha) of the same compound?
The value was 72.4^b %.

And the “Dry weight (as a % of the untreated plants)” value (sunflower line SuBL; metsulfuron 2x = 10 g ai/ha)?
Its value is 52.2^b %.

And the “Dry weight (as a % of the untreated plants)” value (sunflower line SuBL; metsulfuron 3x = 15 g ai/ha)?
The value was 35.7^b %.

And the “Dry weight (as a % of the untreated plants)” value (sunflower line SuBL; metsulfuron 4x = 20 g ai/ha)?
Its value is 30.3% and 30.3^b %.

And the “Phytotoxicity Index” value (sunflower line SuBL; metsulfuron 2x = 10 g ai/ha)?
Its value is 4.3^c.

And the “Phytotoxicity Index” value (sunflower line SuBL; metsulfuron 3x = 15 g ai/ha)?
Its value is 7.2^b.

And the “Dry weight (as a % of the untreated plants)” value (sunflower line RW-B; metsulfuron 2x = 10 g ai/ha)?
The value was 73.9^a %.

And the “Dry weight (as a % of the untreated plants)” value (sunflower line RW-B; metsulfuron 3x = 15 g ai/ha)?
The value was 60.7^a %.

And the “Dry weight (as a % of the untreated plants)” value (sunflower line RW-B; metsulfuron 4x = 20 g ai/ha)?
Its value is 38.1^a %.

What about the “Phytotoxicity Index” value (sunflower line RW-B; metsulfuron 0.5x = 2.5 g ai/ha) of the same compound?
The value was 0^c.

What about the “Phytotoxicity Index” value (sunflower line RW-B; metsulfuron 1x = 5 g ai/ha) of the same compound?
The value was 0.6^d.

What about the “Phytotoxicity Index” value (sunflower line RW-B; metsulfuron 2x = 10 g ai/ha) of the same compound?
Its value is 1.1^d.

What about the “Phytotoxicity Index” value (sunflower line RW-B; metsulfuron 3x = 15 g ai/ha) of the same compound?
The value was 2.8^c.

What about the “Dry weight (as a % of the untreated plants)” value (sunflower line B770; metsulfuron 0.5x = 2.5 g ai/ha) of the same compound?
Its value is 23.7^d %.

And the “Dry weight (as a % of the untreated plants)” value (sunflower line B770; metsulfuron 1x = 5 g ai/ha)?
Its value is 20^d %.

And the “Dry weight (as a % of the untreated plants)” value (sunflower line B770; metsulfuron 2x = 10 g ai/ha)?
The value was 19.4^d %.

What about the “Dry weight (as a % of the untreated plants)” value (sunflower line B770; metsulfuron 3x = 15 g ai/ha) of the same compound?
The value was 19.2^d %.

What about the “Dry weight (as a % of the untreated plants)” value (sunflower line B770; metsulfuron 4x = 20 g ai/ha) of the same compound?
Its value is 19.4^c %.

And the “Phytotoxicity Index” value (sunflower line B770; metsulfuron 0.5x = 2.5 g ai/ha)?
The value was 9^a.

What about the “Phytotoxicity Index” value (sunflower line B770; metsulfuron 1x = 5 g ai/ha) of the same compound?
The value was 9^a.

And the “Phytotoxicity Index” value (sunflower line B770; metsulfuron 2x = 10 g ai/ha)?
Its value is 9^a.

What about the “Phytotoxicity Index” value (sunflower line B770; metsulfuron 3x = 15 g ai/ha) of the same compound?
The value was 9^a.

And the “Phytotoxicity Index” value (sunflower line B770; metsulfuron 4x = 20 g ai/ha)?
Its value is 9^a.
